Assays:
gp120 (MN strain) = target: T1, gp120 (MN strain) (Human immunodeficiency virus type 1 group M subtype B, UniProt P05877); test: Irreversible hapten CAL binding by gp120; design: species or system HIV
T1 construct: purchased

calmodulin = calmodulin (Homo sapiens, UniProt P0DP23); test: Irreversible CAL binding by calmodulin
nine purified proteins = test: Screening of purified proteins for irreversible hapten CAL binding; conditions: protein 1 μM, CAL 0.5 mM, 16 h, 37° C.
IgG = format: biochemical, human
murine splenocytes = test: Hapten CAL I reactivity with spleen cells (microscopy, flow cytometry); format: cell-based, BALB/c mouse
Description: BCR covalent reaction with hapten CALs. hapten CALs such as compound I (FIG. 19) react irreversibly with nucleophilic sites in conventional serine proteases and Abs (3,35,44-47). Methods for synthesis of this compound, preparation of B cells from mice, flow cytometric analysis of binding to the cells and electrophoretic measurement of covalent binding to Ig subunits are described in refs 3,35,48. To evaluate the nucleophilic reactivity expressed on the surface of B cells in the preimmune repertoire (viz., the repertoire developed spontaneously without purposeful immunological challenge), viable splenocytes from BALB/c mice were treated with hapten CAL I. The control compound II is identical in structure to hapten CAL I, except that the phosphonate group is not esterified, which results in loss of covalent reactivity with nucleophilic residues (3,35). […] Flow cytometry confirmed the microscopy results. […] In 3 repeat experiments, the proportion of hapten CAL I-stained cells that were positive for the B cell marker CD19 was 82±4% (FIG. 20B). […] Most of the CAL fluorescence was restricted to the surfaces of the B cells (FIG. 20F).

plasma proteins = test: CAL reaction in the presence of human plasma; format: binding; conditions: human plasma 1% v/v, CAL 10 μM, 1 h
trypsin = target: T2, trypsin (Sus scrofa, UniProt P00761); test: Irreversible hapten CAL binding by trypsin; design: species or system porcine; conditions: hapten CAL 100 μM
T2 construct: purchased Sigma type IX
T2 sequence (P00761 9-231): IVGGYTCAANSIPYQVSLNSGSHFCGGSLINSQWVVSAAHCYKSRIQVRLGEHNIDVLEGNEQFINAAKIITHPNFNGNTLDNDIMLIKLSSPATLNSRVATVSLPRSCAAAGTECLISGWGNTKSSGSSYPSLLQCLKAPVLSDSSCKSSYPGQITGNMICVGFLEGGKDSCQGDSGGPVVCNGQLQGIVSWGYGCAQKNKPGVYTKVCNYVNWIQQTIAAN

[1] = test system: monoclonal anti-VIP IgG clone c23.5; test: Covalent CAL binding by monoclonal anti-VIP IgG c23.5
[2] = test system: human polyclonal IgG HS-2; test: Irreversible inhibition of HS-2 IgG-catalyzed [Tyr10-125I]-VIP cleavage; format: biochemical; conditions: IgG 2 μM preincubated 16 h, unreacted CAL removed
human IgG = format: binding
[3] = flow cytometry, 100 μM, 4 hours

| Compound | Kd (gp120 (MN strain)) | first-order rate constant of covalent adduct formation k2 (gp120 (MN strain); pH 7.4, 37° C.) | second-order rate constant for reaction with calmodulin (calmodulin; calmodulin 1 μM, 3 10 μM or 1 0.5 mM, 37° C.) | proteins forming irreversible adducts (nine purified proteins) | inhibition of IgG-catalyzed peptide-MCA cleavage (IgG) | loss of viability of cells (trypan blue exclusion) (murine splenocytes) | proportion of hapten CAL I-stained cells positive for CD19 (murine splenocytes; 3 repeat experiments) | cells displaying intense staining (murine splenocytes; UV microscope, 400 lymphocytes counted, N 3) | cells with fluorescence intensities exceeding compound II-treated cells (murine splenocytes; [3]) | subpopulation with very high fluorescence intensity (murine splenocytes; [3]) | reaction with plasma proteins (plasma proteins) | velocity of covalent I adduct formation with trypsin (trypsin) | Vapp values for the two subunits of anti-VIP Ab [1] | IC50 [2] | velocity for IgG relative to trypsin (human IgG) | velocity of covalent I adduct formation with IgG (human IgG) | inhibition of 3-calmodulin binding (calmodulin; VIP 100 μM, 3 10 μM) |
| --- | --- | --- | --- | --- | --- | --- | --- | --- | --- | --- | --- | --- | --- | --- | --- | --- | --- |
| N=C(N)c1ccc(C(NC(=O)CCCCCNC(=O)CCCC[C@@H]2SC[C@@H]3NC(=O)N[C@@H]32)P(=O)(Oc2ccccc2)Oc2ccccc2)cc1 (some centres unmarked) [hapten CAL I, Diphenyl N-(6-biotinamidohexanoyl)amino(4-amidinophenyl)methanephosphonate] | 710 ± 500 µM | 0.015 ± 0.007 min⁻¹ | 0.00353 ± 0.000283 M⁻¹ s⁻¹ | Seven of the nine | inhibited | No loss of viability | 82±4% | 11±2 | Seventy nine | 14% | little or no adduct formation | 11.9±0.6 AAU/min | nearly equivalent | 36 µM | 14.5 fold | 172.7±14.2 AAU/min | – |
| VIP: 28 amino acid peptide, devoid of the phosphonate group [reference compound] | – | – | – | – | – | – | – | – | – | – | – | – | – | – | – | – | 65% |

From patent US9006388B2, “Covalent attachment of ligands to nucleophilic proteins guided by non-covalent” (priority 2003, dated 2015)
